Consider 3 compounds from patent US4714701A, “Antiviral compounds” (Burroughs Wellcome Co., priority 1985, dated 1987).

In data set [1] the test system is dogs. The data set can be described thus: Toxicity in dogs, intravenous route. Format: in vivo, dog. The following applies: 60 mg/kg/day. The protocol: The toxicity of the compound of Example 2 was determined by administering the compound to dogs at a dosage of 60 mg/kg/day, by the intravenous route.
Data set [2] has as its system herpes simplex virus. The data set can be described thus: Anti-HSV activity, plaque reduction assay. The class given is cell-based. The procedure: The inhibiting effect of the compounds of Example 1 and 2 against herpes simplex virus were determined by the plaque reduction assay.
(In general: In a plaque reduction assay, fewer plaques than in the control indicate reduced infectivity or spread.)

Data set [3] deals with EBV. The data set can be described thus: Activity against EBV infections (general statement). Set-up: species or system Epstein-Barr virus.
The test system of data set [4] is EBV. The data set can be described thus: Anti-EBV activity (method described by Nonogama l. Pagano, 1971). Format: cell-based, Epstein-Barr virus. The settings on record: human gammaherpesvirus 4. The protocol:
The inhibitory effect of the compound of Example 2 against EBV was determined by the method described by Nonogama l. Pagano, 1971, Nature: New Biology, Vol. 233, 103-104.

Data set [5] deals with CMV. The experiment in a line: Activity against CMV infections (general statement). Set-up: species or system cytomegalovirus.
Data set [6] deals with herpes simplex. The following applies: prior art compound; cited from earlier work.
For data set [7], the system named is herpes simplex. The experiment in a line: Activity against herpes simplex (general statement). Set-up: species or system herpes simplex virus.

SMILES strings stand for the structures. Read-outs that look alike come from different tables or passages of the source.

The IC50 is the concentration that inhibits the measured activity by half. Low values mean greater potency in that assay, high ones weaker potency in that assay. For the compound `Nc1nc2c(nnn2COC(CO)CO)c(=O)[nH]1` [Example 2, 5-Amino-3,6-dihydro-3-[(2-hydroxy-1-hydroxymethylethoxy)methyl]-7H-1,2,3-triazolo[4,5-d]pyrimidin-7-one], the toxic effects entry in data set [1] is “No toxic effects were noted”. Further, the IC50 in data set [2] was 27.4 µM; in data set [4], 1 to 10 µM. In addition, the “activity against EBV infections” value in data set [3] is recorded as “especially potent activity”. Further, the “activity against CMV infections” value in data set [5] was “especially potent activity”.
As to `Nc1nc2c(ncn2COCCO)c(=O)[nH]1` [acyclovir, 9-(2-hydroxyethoxymethyl)guanine], the “activity against herpes simplex” value in data set [6] is “particularly good activity”.
The compound `Nc1nc2c(nc(N)n2COC(CO)CO)c(=O)[nH]1` [Example 1, 8-Amino-9-[(2-hydroxy-1-hydroxymethylethoxy)methyl]guanine] had an IC50 in data set [2] of 0.5 µM. Moreover, the “activity against herpes simplex” value in data set [7] is reported as “particularly high activity”.
